For four molecules, EC50 results are on record in patent US8575135B2 (Gilead Sciences, Inc., priority 2011, dated 2013).

Read-outs that look alike come from different tables or passages of the source. A value given as a limit tells only on which side of the number the result lay.

Experiment in all cases: microbe, parasite or virus in culture
What all share (conditions): Hepatitis C virus

The subject of assay [1] is stable HCV 1a RLuc replicon cells (genotype 1a H77 replicon). The class given is cell-based. As for the experimental part:
(§1) Evaluation of Cell-Based Anti-HCV Activity:
(§2) Antiviral potency (EC50) was determined using a Renilla luciferase (RLuc)-based HCV replicon reporter assay. […] To perform the assay for genotype 2a (with M31 present in NS5A) or 2b, NS5A chimeric genotype 2a JFH-1 replicons that encodes a RLuc-Neo reporter and either genotype 2a J6 strain NS5A gene or genotype 2b MD2b-1 strain NS5A gene (both with M31 present) respectively, were either transiently transfected (t) into Huh-Lunet cells or were established as stably replicating replicon cells (s) is provided. Either cells were dispensed into 384-well plates for EC50 assays. To perform the assay for genotype 3 and 4, NS5A chimeric genotype 1b Con1 replicons that encodes a Pi-RLuc reporter and either genotype 3a S52 strain NS5A gene or genotype 4a ED43 strain NS5A gene respectively, were transiently transfected (t) into Huh-Lunet cells, which were subsequently dispensed into 384-well plates. Compounds were dissolved in DMSO at a concentration of 10 mM and diluted in DMSO either manually or using an automated pipeting instrument. Serially 3-fold diluted compounds were either manually mixed with cell culture media and added to the seeded cells or directly added to the cells using an automated instrument. […] 72 hours later, cells were lysed and Renilla luciferase activity quantified as recommended by the manufacturer (Promega-Madison, Wis.). Non-linear regression was performed to calculate EC50 values.

In assay [2] the test system is NS5A chimeric genotype 2a JFH-1 replicon with genotype 2a J6 strain NS5A gene (M31 present). Type of assay: cell-based, HCV. As for the experimental part:
as §1, §2

Assay [3] relates to NS5A chimeric genotype 2a JFH-1 replicon with genotype 2b MD2b-1 strain NS5A gene (M31 present). The class given is cell-based, HCV. As for the experimental part:
as §1, §2

The subject of assay [4] is NS5A chimeric genotype 1b Con1 replicon with genotype 3a S52 strain NS5A gene. The class given is cell-based, HCV. As for the experimental part: as §1, §2
Assay [5] concerns 1a Pi-Rluc replicon with Q30R in genotype 1a NS5A. The class given is cell-based, HCV. As for the experimental part: as §2
To determine the antiviral potency (EC50) against resistance mutants, resistance mutations, including M28T, Q30R, Q30H, L31M, and Y93C in genotype 1a NS5A and Y93H in genotype 1b NS5A, were introduced individually into either 1a Pi-Rluc or 1b Pi-Rluc replicons by site directed mutagenesis. Replicon RNA of each resistant mutant was transiently transfected into Huh-7-derived cured-51 cells and antiviral potency was determined on these transfected cells as described above.

Assay [6] concerns stable HCV 2a JFH-1 Rluc replicon cells (L31 present in NS5A). Type of assay: cell-based.
The test system of assay [7] is NS5A chimeric genotype 1b Con1 replicon with genotype 4a ED43 strain NS5A gene. Type of assay: cell-based, HCV.

Take `COC[C@H]1C[C@@H](c2ncc(-c3ccc4c(c3)COc3cc5c(ccc6nc([C@@H]7CCCN7C(=O)[C@H](NC(=O)OC)c7ccccc7)[nH]c65)cc3-4)[nH]2)N(C(=O)[C@@H](NC(=O)OC)[C@@H](C)OC)C1` [Compound 626]: the EC50 in assay [1] (read-out: 1a) is less than 1 nM; in assay [1] (read-out: 1a (nM)) it was 0.021 nM; in assay [2] (read-out: 2a J6) it was less than 1 nM; in assay [2] (read-out: 2a Jb (t) (nM)), 0.021 nM; in assay [3] (read-out: 2b), less than 1 nM; in assay [3] (read-out: 2b (t) (nM)), 0.021 nM. Moreover, the EC50 in assay [4] (read-out: 3a) was less than 1 nM; in assay [4] (read-out: 3a (nM)), 0.027 nM; in assay [5] (read-out: 1a Q30R), less than 1 nM; in assay [5] (read-out: 1a Q30R (nM)) it was 0.041 nM; in assay [6] (read-out: 2a JFH), less than 1 nM; in assay [6] (read-out: 2a JFH (nM)) it was 0.009 nM.
In the case of `COC(=O)N[C@H](C(=O)N1[C@@H](C)CC[C@H]1c1ncc(-c2ccc3c(c2)COc2cc4c(ccc5nc([C@@H]6CCCN6C(=O)[C@H](NC(=O)OC)c6ccccc6)[nH]c54)cc2-3)[nH]1)C(C)C` [Example NQ, Methyl {(2S)-1-[(2S,5S)-2-(5-{2-[(2S)-1-{(2R)-2-[(methoxycarbonyl)amino]-2-phenylacetyl}pyrrolidin-2-yl]-1,11-dihydroisochromeno[4′,3′:6,7]naphtho[1,2-d]imidazol-9-yl}-1H-imidazol-2-yl)-5-methylpyrrolidin-1-yl]-3-methyl-1-oxobutan-2-yl}carbamate], the EC50 in assay [1] (read-out: 1a) was less than 1 nM; in assay [1] (read-out: 1a (nM)) it was 0.017 nM; in assay [2] (read-out: 2a J6), less than 1 nM; in assay [2] (read-out: 2a Jb (t) (nM)) it was 0.064 nM; in assay [3] (read-out: 2b) it was less than 1 nM; in assay [3] (read-out: 2b (s) (nM)), 0.012 nM. The EC50 in assay [3] (read-out: 2b (t) (nM)) is 0.013 nM; in assay [4] (read-out: 3a), less than 1 nM; in assay [4] (read-out: 3a (nM)), 0.013 nM; in assay [5] (read-out: 1a Q30R) it was less than 1 nM; in assay [5] (read-out: 1a Q30R (nM)), 0.039 nM; in assay [6] (read-out: 2a JFH) it was less than 1 nM. Moreover, the EC50 in assay [6] (read-out: 2a JFH (nM)) stood at 0.006 nM.
`CC[C@H](C)[C@H](NC(=O)OC)C(=O)N1C[C@@H](COC)C[C@H]1c1nc2ccc3cc4c(cc3c2[nH]1)OCc1cc(-c2cnc([C@@H]3CC[C@H](C)N3C(=O)[C@@H](NC(=O)OC)C(C)C)[nH]2)ccc1-4` [Example ON, methyl {(2S)-1-[(2S,4S)-2-(5-{2-[(2S,5S)-1-{(2S,3S)-2-[(methoxycarbonyl)amino]-3-methylpentanoyl}-4-(methoxymethyl)-2-yl]-1,11-dihydroisochromeno[4′,3′:6,7]naphtho[1,2-d]imidazol-9-yl}-1H-imidazol-2-yl)-5-methylpyrrolidin-1-yl]-3-methyl-1-oxobutan-2-yl}carbamate]: the EC50 in assay [1] (read-out: 1a) is less than 1 nM; in assay [1] (read-out: 1a (nM)), 0.005 nM; in assay [2] (read-out: 2a J6), less than 1 nM; in assay [2] (read-out: 2a Jb (t) (nM)), 0.068 nM; in assay [3] (read-out: 2b (t) (nM)), 0.086 nM; in assay [5] (read-out: 1a Q30R), less than 1 nM. Further, the results for the EC50 in assay [6] (read-out: 2a JFH) and in assay [6] (read-out: 2a JFH (nM)) were less than 1 nM and 0.004 nM, respectively.
As for `COC(=O)N[C@H](C(=O)N1CCCC1c1ncc(-c2ccc3c(c2)COc2cc4c(ccc5nc([C@@H]6C[C@@H]7CCC[C@@H]7N6C(=O)[C@@H](NC(=O)OC)C(C)C)[nH]c54)cc2-3)[nH]1)C(C)C` (stereo partly drawn) [Example PO, methyl {(2S)-1-[2-(5-{2-[(2S,3aS,6aS)-1-{(2S)-2-[(methoxycarbonyl)amino]-3-methylbutanoyl}octahydrocyclopenta[b]pyrrol-2-yl]-1,11-dihydroisochromeno[4′,3′:6,7]naphtho[1,2-d]imidazol-9-yl}-1H-imidazol-2-yl)pyrrolidin-1-yl]-3-methyl-1-oxobutan-2-yl}carbamate], the EC50 in assay [1] (read-out: 1a) is less than 1 nM; in assay [1] (read-out: 1a (nM)), 0.013 nM; in assay [2] (read-out: 2a J6), 1 to 4.99 nM; in assay [2] (read-out: 2a J6 (s) (nM)) it was 3.13 nM; in assay [3] (read-out: 2b), less than 1 nM; in assay [3] (read-out: 2b (s) (nM)) it was 0.47 nM. Besides, the EC50 was less than 1 nM in assay [4] (read-out: 3a); 0.012 nM in assay [4] (read-out: 3a (nM)); less than 1 nM in assay [7] (read-out: 4a); 0.013 nM in assay [7] (read-out: 4a (s) (nM)); 0.013 nM in assay [7] (read-out: 4a (t) (nM)); less than 1 nM in assay [6] (read-out: 2a JFH). For the same molecule, the EC50 in assay [6] (read-out: 2a JFH (nM)) was 0.011 nM.
